Results taken from patent publication US4338314A, “[1,2]Anellated-7-phenyl-1,4-benzodiazepine and pharmaceutical compositions thereof and use for treatment of ulcers” (Kali-Chemie Pharma GmbH, priority 1978, dated 1982).

Tests used:
[1] = Acute 7-day toxicity after a single application per os (LD50); settings: mouse, in vivo; single oral dose, unfed white NMRI mice, 7 days
Description: The acute 7-day toxicity is determined after a single application per os in white NMRI mice which have not been fed. The calculation of the LD50 is carried out by probitananalysis by means of electronic data processing (see L. Cavalli-Sforza, Gustav-Fischer-Verlag, Stuttgart (1964), Grundbegriffe der Biometrie, Chapter 10, pages 153-190).

[2] = tested on: indomethacine-induced ulcers; test: Effectiveness against indomethacine-induced ulcers in rats; assay type: in vivo, rats (male); settings: Rattus norvegicus, 1 h before 40 mg/kg indomethacine, 24 h, read-out: Ulcer induced by indomethacine, % inhibited; for inhibition in vivo at 100 mg/kg: 100 mg/kg oral; for inhibition in vivo at 200 mg/kg: 200 mg/kg oral
Description: 2. Effectiveness Against Indomethacine-Induced Ulcers in Rats Modified Test Procedure According to U. Jahn and R. W. Adrian, Arzneimittel Forschung, (Drug Research) 19, (1969), p. 36.:
The animals of the blank control group receive the corresponding amount by volume of the suspension medium only. One hour after the application of the test compouns, a dosage of 40 mg/kg of indomethacine contained in an amount of 0.5 ml of a suspension per 100 g animal weight are orally applied to each animal for producing ulcers. Twenty-four hours after the application of the indomethacine the animals are sacrificed.

muscle tone = test: Testing of musculatropic properties (traction test); assay type: in vivo; settings: Mus musculus, 2 h; oral, mice, after 120 minutes; half of animals do not touch wire with hind legs within 5 seconds
Description: 3. Testing of Musculatropic Properties:
In a traction test, mice are administered the test substance orally. After 120 minutes the mice are attached at the front paws to a horizontally suspended wire. The ED50 is the dose which causes exactly half of the animals not to touch the wire also with their hind legs within a period of 5 seconds, (W. Theobald et al, Arneim. Forschung 17, (1967), page 561). This test measures the influence of the test substance on the muscle tone of the test subject.

[3] = tested on: central nervous system (hexobarbital sleep time); test: Central nervous depressant properties (prolonging the hexobarbital sleep time); assay type: in vivo; settings: Mus musculus, 0.5 h; oral, mice, 30 minutes before 64 mg/kg hexobarbital; half of animals extend sleep by factor of 4; read-out: Prolonging hexobarbitol sleep time (ED50)
Description: 4. Testing of Central Nervous Depressant Properties (Prolonging the Hexobarbital sleep time):
The test substance is administered orally to mice. After 30 minutes, the animals are additionally injected with hexabarbitol in an amount of 64 mg/kg. The time point of the onset of sleeping posture is determined and the duration of sleeping posture is compared with a control group treated exclusively with hexobarbitol. The dose, with which half of the animals extend the time of sleeping posture by a factor of 4 over that of the control group, is defined as ED50. (J. W. Kemp. M. Tannhauser and E. A. Swingard, Arch. Int. Pharmacodyn. 193(1971), pp 34-47).

central nervous system = test: Central nervous / psychopharmacological activity, side effects and toxicity, general statement

SMILES: Clc1ccc2c(c1)C(c1ccccc1)=NCC1COCCN21 (stereo not shown) [A]
- LD50 at 168 h [1]: 2260 mg/kg
- inhibition in vivo at 150 mg/kg ([2]; 150 mg/kg oral): 61%
- ED50 (muscle tone): 285 mg/kg
- ED50 [3]: 31.6 mg/kg

SMILES: Fc1ccc2c(c1)C(c1ccccc1)=NCC1COCCN21 (stereo not shown) [B]
- LD50 at 168 h [1]: > 1370 mg/kg
- inhibition in vivo at 100 mg/kg [2]: 77%
- ED50 (muscle tone): > 296 mg/kg
- ED50 [3]: 80.3 mg/kg

SMILES: Cc1ccc2c(c1)C(c1ccccc1)=NCC1COCCN21 (stereo not shown) [C]
- LD50 at 168 h [1]: > 1430 mg/kg
- inhibition in vivo at 200 mg/kg [2]: 68%
- ED50 (muscle tone): > 316 mg/kg
- ED50 [3]: 139 mg/kg

SMILES: Cc1ccc2c(c1)N1CCOCC1CN=C2c1ccccc1 (stereo not shown) [D]
- LD50 at 168 h [1]: > 1470 mg/kg
- inhibition in vivo at 100 mg/kg [2]: 70%
- ED50 (muscle tone): > 316 mg/kg
- ED50 [3]: 138 mg/kg

SMILES: Clc1ccc2c(c1)C(c1ccccc1Cl)=NCC1COCCN21 (stereo not shown) [E]
- LD50 at 168 h [1]: > 1470 mg/kg
- inhibition in vivo at 100 mg/kg [2]: 86%
- ED50 (muscle tone): > 316 mg/kg
- ED50 [3]: 11.8 mg/kg

SMILES: COc1ccc2c(c1)N1CCOCC1CN=C2c1ccccc1 (stereo not shown) [F]
- LD50 at 168 h [1]: > 1430 mg/kg
- inhibition in vivo at 100 mg/kg [2]: 42%
- ED50 (muscle tone): > 308 mg/kg
- ED50 [3]: 202 mg/kg

SMILES: Cc1cc2c(cc1Cl)N1CCOCC1CN=C2c1ccccc1 (stereo not shown) [G]
- LD50 at 168 h [1]: > 1520 mg/kg
- inhibition in vivo at 200 mg/kg [2]: 77%
- ED50 (muscle tone): > 327 mg/kg
- ED50 [3]: 119 mg/kg

SMILES: Clc1ccc2c(c1)C(c1ccccc1)=NCC1CSCCN21 (stereo not shown) [H]
- LD50 at 168 h [1]: > 1470 mg/kg
- inhibition in vivo at 100 mg/kg [2]: 74%
- ED50 (muscle tone): 316 mg/kg
- ED50 [3]: 153 mg/kg

SMILES: C=CCN1CCN2c3ccc(Cl)cc3C(c3ccccc3)=NCC2C1 (stereo not shown) [I]
- LD50 at 168 h [1]: 1090 mg/kg
- inhibition in vivo at 200 mg/kg [2]: 81%
- ED50 (muscle tone): > 316 mg/kg
- ED50 [3]: 100 mg/kg

SMILES: Clc1ccc2c(c1)C(c1ccccc1)=NCC1CN(CCc3ccccc3)CCN21 (stereo not shown) [K]
- LD50 at 168 h [1]: > 1310 mg/kg
- inhibition in vivo at 200 mg/kg [2]: 85%
- ED50 (muscle tone): > 284 mg/kg
- ED50 [3]: 110 mg/kg

SMILES: Cc1ccc2c(c1)C(c1ccccc1)=NCC1CN(C)CCN21 (stereo not shown) [L]
- LD50 at 168 h [1]: > 1010 mg/kg
- inhibition in vivo at 250 mg/kg ([2]; 250 mg/kg oral): 70%
- ED50 (muscle tone): > 215 mg/kg
- ED50 [3]: 164 mg/kg

SMILES: CN1C(=O)CN=C(c2ccccc2)c2cc(Cl)ccc21 [S]
- inhibition in vivo at 12 mg/kg ([2]; 12 mg/kg oral, higher doses not tolerable): 28%
- ED50 (muscle tone): 4.2 mg/kg
- ED50 [3]: 1.5 mg/kg

SMILES: CN1C(=O)CN=C(c2ccccc2)c2cc(Cl)ccc21 [Substance S, 7-chloro-1-methyl-5-phenyl-1,3-dihydro-2H-1,4-benzodiazepin-2-one]
- psychopharmacological effect (central nervous system; already with small doses): strong
- tolerability of higher doses sufficient to achieve an improved ulcer inhibiting effect (central nervous system; higher doses): not tolerable
